# Test results from patent US5607929A, “Antiviral dibenzothiazepinone derivatives” (Glaxo Wellcome Inc., priority 1991, dated 1997).
# System: HIV
# Assay: HIV (MT4 assay), in vitro antiviral activity
# Type: cell-based
# Settings: not given
row,Molecule,IC50
1,"4-fluorodibenzothiazepin-11(10H)-one-5,5-dioxide [15(iv)]",1800 nM

# Same assay, conditions: Human immunodeficiency virus 1
row,Molecule,IC50
1,"O=C1Nc2ccccc2Sc2c(F)cccc21 [14(iv), 4-Fluoro-10,11-dihydrobenzo[b,f][1,4]thiazepin-11-one]",1100 nM
2,"CN1C(=O)c2cccc(F)c2Sc2ccccc21 [17(i), 4-Fluoro-10-methyl-10,11-dihydrobenzo[b,f][1,4] thiazepin-11-one]",700 nM
3,"O=C1Nc2ccccc2S(=O)(=O)c2ccccc21 [Example 5, 10,11-Dihydrodibenzo[b,f][1,4]thiazepin-11-one-5,5-dioxide]",13000 nM
4,"CN1C(=O)c2cccc(C(F)(F)F)c2Sc2ccccc21 [Example 10, 10-Methyl-4-trifluoromethyl-10,11-dihydrodibenzo[b,f][1,4]thiazepin-11-one]",2800 nM
5,"COc1ccc2c(c1)S(=O)(=O)c1ccccc1C(=O)N2 [Example 22, 7-Methoxy-10,11-dihydrodibenzo[b,f][1,4]thiazepin-11-one-5,5-dioxide]",12800 nM
6,"O=C1Nc2ccccc2Sc2c1cccc2C(F)(F)F [Example 7, 4-Trifluoromethyl-10,11-dihydrodibenzo[b,f][1,4]thiazepin-11-one]",2500 nM
7,"CSc1cccc2c1Sc1ccccc1NC2=O [Example 19, 4-Thiomethyl-10,11-dihydrodibenzo[b,f][1,4]thiazepin-11-one]",2300 nM
